Columns and labels:
Assay in all cases: relative viability (nuclei count vs DMSO), 5 days (fraction); higher = more cells survive
[1] = compound: COc1cccc2c1C(=O)c1c(O)c3c(c(O)c1C2=O)C[C@@](O)(C(=O)CO)C[C@@H]3O[C@H]1C[C@H](N)[C@H](O)[C@H](C)O1 [Doxorubicin] + COc1cc2c(Oc3ccc(NC(=O)C4(C(=O)Nc5ccc(F)cc5)CC4)cc3F)ccnc2cc1OCCCN1CCOCC1 [Foretinib] (partner 0.25 µM)
Method in brief: (§1)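 For relative viability, nuclei counts in treated wells were divided by those in vehicle wells. Lung cancer cell lines had been pin-tool dosed in 1536-well plates the day after seeding and cultured for 5 days, then fixed and stained in one step (final 0.05% Triton X-100, 1% formaldehyde, 1 ug/ml Hoechst) and imaged at 4×. Doses were one drug alone or a fixed anchor-drug dose plus five library-drug doses (not always all listed) in √10 steps, and values are duplicate-plate medians.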

[2] = compound: COc1cccc2c1C(=O)c1c(O)c3c(c(O)c1C2=O)C[C@@](O)(C(=O)CO)C[C@@H]3O[C@H]1C[C@H](N)[C@H](O)[C@H](C)O1 [Doxorubicin] + C[C@]1(O)C[C@@H](c2nc(-c3ccc4ccc(-c5ccccc5)nc4c3)c3c(N)nccn32)C1 [Linsitinib] (partner 1 µM)
Method in brief: as §1

[3] = compound: COC1=C(C=C(C=C1)C2=CC3=NC=CN3C(=N2)NC4=C(C=CC=N4)C(=O)N)OC [BAY61-3606] + Cc1cc(Nc2cc(N3CCN(C)CC3)nc(Sc3ccc(NC(=O)C4CC4)cc3)n2)n[nH]1 [Tozasertib] (partner 0.1 µM)
Method in brief: as §1

[4] = compound: COc1cccc2c1C(=O)c1c(O)c3c(c(O)c1C2=O)C[C@@](O)(C(=O)CO)C[C@@H]3O[C@H]1C[C@H](N)[C@H](O)[C@H](C)O1 [Doxorubicin] + CC(C)C[C@H](NC(=O)[C@H](Cc1ccccc1)NC(=O)c1cnccn1)B(O)O [Bortezomib] (partner 0.002 µM)
Method in brief: as §1

Row | Cell Line | relative viability ([1]; first compound 0.001 µM) | relative viability ([1]; first compound 0.003162 µM) | relative viability ([1]; first compound 0.01 µM) | relative viability ([1]; first compound 0.03162 µM) | relative viability ([1]; first compound 0.1 µM) | relative viability ([2]; first compound 0.001 µM) | relative viability ([2]; first compound 0.003162 µM) | relative viability ([2]; first compound 0.01 µM) | relative viability ([2]; first compound 0.03162 µM) | relative viability ([2]; first compound 0.1 µM) | relative viability ([3]; first compound 0.02 µM) | relative viability ([3]; first compound 0.06325 µM) | relative viability ([3]; first compound 0.2 µM) | relative viability ([3]; first compound 0.6325 µM) | relative viability ([3]; first compound 2 µM) | relative viability ([4]; first compound 0.001 µM) | relative viability ([4]; first compound 0.003162 µM) | relative viability ([4]; first compound 0.01 µM) | relative viability ([4]; first compound 0.03162 µM) | relative viability ([4]; first compound 0.1 µM)
1 | NCI-H1975 | 0.998 | 1 | 0.879 | 0.855 | 0.444 | 1.09 | 1.02 | 0.845 | 0.572 | 0.464 | 0.763 | 0.521 | 0.323 | 0.257 | 0.11 | 0.433 | 0.364 | 0.321 | 0.226 | 0.165
2 | CAL-12T | 1.03 | 1.07 | 1.04 | 0.568 | 0.35 | 0.783 | 0.858 | 0.762 | 0.432 | 0.48 | 0.289 | 0.305 | 0.198 | 0.303 | 0.165 | 1.01 | 1.06 | 0.853 | 0.567 | 0.307
3 | SK-LU-1 | 0.85 | 0.812 | 0.76 | 0.507 | 0.333 | 1.1 | 1.23 | 0.891 | 0.435 | 0.43 | 0.315 | 0.282 | 0.264 | 0.231 | 0.2 | – | 1.19 | 1.25 | 0.945 | 0.671
4 | NCI-H650 | 0.93 | 0.965 | 1.08 | 0.834 | 0.954 | 1.01 | 0.753 | 0.949 | 0.709 | 0.411 | 0.795 | 0.263 | 0.648 | 0.455 | 0.226 | 0.862 | 0.688 | 0.914 | 0.697 | 0.511
5 | NCI-H2023 | 0.567 | 0.934 | 0.507 | 0.461 | 0.17 | 0.642 | 0.62 | 0.549 | 0.279 | 0.102 | 0.359 | 0.225 | 0.232 | 0.197 | 0.118 | 0.456 | 0.889 | 0.69 | 0.152 | 0.0962
6 | 201T | 0.963 | 1.03 | 1.02 | 0.898 | 0.523 | 1 | 0.979 | 0.983 | 1.06 | 1.01 | 1 | 0.593 | 0.774 | 0.565 | 0.378 | 1.06 | 0.991 | 1.14 | 1.15 | 1.05
7 | NCI-H2405 | 1.02 | 1.1 | 1.02 | 1.09 | 1 | – | 0.938 | 0.887 | 0.707 | 0.519 | 0.698 | 0.426 | 0.479 | 0.491 | 0.287 | 1 | 1.01 | 0.973 | 0.994 | 0.994
8 | LU99A | 0.832 | 0.915 | 0.769 | 0.721 | 0.802 | 0.521 | 0.645 | 0.526 | 0.456 | 0.575 | 0.279 | 0.216 | 0.217 | 0.239 | 0.177 | 1.1 | 1.23 | 1.14 | 0.764 | 0.5

— the supplement of paper PMC10307832
